Measured values as given in patent publication US20150284305A1, “FLUORINE-CONTAINING COMPOUND AND METHOD FOR PRODUCING SAME” (Asahi Glass Company, Limited, priority 2012, published 2015).

Assay: Solubility test: 20 mg sample in 10 g solvent, evaluated visually
Format: physicochemical
Details: 20 mg in 10 g solvent (0.2 mass %), room temperature / 25° C., visual
Description: For evaluating the applicability thereof to a wet process, the compound to be analyzed was tested in a dissolution test in various solvents. As a comparative case, anthracene was tested for the dissolution test.
Concretely, 20 mg of the sample was weighed, and the solubility thereof (0.2 mass %) in 10 g of a solvent at room temperature was visually evaluated.
In Table 1, A means soluble, and B means insoluble. The standard of “soluble” was set as the case where the compound dissolved in an amount of 0.2% by mass or more at a solvent temperature of 25° C.

With c1ccc2cc3ccccc3cc2c1 [Comparative Example 3, Anthracene] the “Solubility Test Cyclohexane” value (cyclohexane) was “B (B means insoluble)” and the “Solubility Test Hexane” value (hexane) was “B (B means insoluble)”.
